Source: patent US20250162989A1, “USP30 INHIBITORS AND USES THEREOF” (Vincere Biosciences, Inc., priority 2021, published 2025)

Assays:
[1] = Metabolic stability and intrinsic clearance in liver microsomes (mouse); format: in vitro ADME; conditions: 1 μM, 37° C.
Method: (§1) Test compounds were incubated with microsomes supplemented with co-factors at 37° C. Typical conditions were: compound concentration of 1 μM and 5 sampling time-points (0, 15, 30, 45 and 60 minutes), in duplicates. At each time-point, the reactions were terminated by the addition of organic solvent. The samples were centrifuged and the parent compound concentration was evaluated by LC-MS/MS measurements.

[2] = Metabolic stability and intrinsic clearance in liver microsomes (rat); format: in vitro ADME; conditions: 1 μM, 37° C.
Method: as §1

[3] = Metabolic stability and intrinsic clearance in liver microsomes (human); format: in vitro ADME; conditions: 1 μM, 37° C.
Method: as §1

[4] = molecular target: recombinant USP30 (amino acids 57-517 of the human sequence) (Homo sapiens (Human), UniProt Q70CQ3); test: In vitro USP30 biochemical assay (Ubiquitin-Rhodamine substrate); conditions: […] recombinant USP30, 25 nM Ubiquitin-Rhodamine, fluorescence
Method: In vitro biochemical assay to establish the potency of compounds for USP30 inhibition: a 384-well plate assay using a fluorophore tagged substrate of USP30 was used for in vitro screening of compounds. Each compound was tested at
10 different concentrations (0.5 to 10,000 nM) in duplicate wells. […] Data were analyzed using Graph Pad Prism software with a four-parameter (floating slope) fit to log concentration data to determine IC50s.

Kinetic solubility = format: physicochemical; conditions: 100 mM PBS, 1 hour at room temperature
Method: To 396 μL of a 100 mM phosphate buffered saline (PBS) was added 4 μL of a 10 mM stock solution of the compound. The mixture was shaken at 1000 rpm for 1 hour at room temperature. […] Compound concentration was calculated by comparison to a standard calibration curve. The assay was done in duplicate. The results are reported in μMol.

Caco-2 cells = test: Caco-2 permeability screening assay; format: in vitro ADME; conditions: Caco-2, 10 μM, […] at 37° C.
Method: Caco-2 cells were used after a 21-day cell culture in 24-well Transwell plates. Test and reference compounds (Metoprolol, Enalapril and Erythromycin) were prepared in DMSO and added to either the apical or basolateral chambers of the transwell plate assembly at a concentration of 10 μM. Lucifer Yellow was added to the donor buffer in all wells to assess integrity of the cell layers by monitoring Lucifer Yellow permeation. As Lucifer Yellow (LY) cannot freely permeate lipophilic barriers, a high degree of LY transport indicates poor integrity of the cell layer. After 1.5 hrs incubation at 37° C., aliquots were taken from both apical (A) and basal (B) chambers and added to stop solution in a 96 well plate. Concentrations of compound in the samples were measured by LC-MS/MS. The Efflux ratios, as an indication of active efflux from the apical cell surface, were calculated using the ratio of Papp B>A/Papp A>B.

Chain of recombinant USP30 (amino acids 57-517 of the human sequence) (Q70CQ3 57-517): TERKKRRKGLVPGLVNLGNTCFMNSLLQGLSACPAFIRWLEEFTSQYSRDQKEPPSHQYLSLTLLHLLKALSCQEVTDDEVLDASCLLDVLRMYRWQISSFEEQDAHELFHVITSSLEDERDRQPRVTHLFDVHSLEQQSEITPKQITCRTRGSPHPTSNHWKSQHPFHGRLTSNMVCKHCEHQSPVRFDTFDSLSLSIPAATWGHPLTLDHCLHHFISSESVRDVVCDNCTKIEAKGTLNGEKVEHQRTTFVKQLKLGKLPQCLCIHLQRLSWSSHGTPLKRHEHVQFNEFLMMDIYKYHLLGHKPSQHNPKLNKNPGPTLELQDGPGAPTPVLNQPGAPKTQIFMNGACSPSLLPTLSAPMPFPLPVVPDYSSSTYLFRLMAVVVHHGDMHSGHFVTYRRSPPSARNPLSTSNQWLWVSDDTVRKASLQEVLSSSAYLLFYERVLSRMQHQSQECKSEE

## CC(C)(C)NS(=O)(=O)c1ccc(NC(=O)[C@H](CC2CCCCC2)NC(=O)c2ccc(F)cc2)cc1 [Compound I-294]
[1]
  Half-life in mouse microsomes: D (half-life of <15 minutes)
[2]
  Half-life in rat microsomes: D (half-life of <15 minutes)
[3]
  Half-life in human microsomes: D (half-life of <15 minutes)
[4]
  IC50: < 0.05 µM
Kinetic solubility
  Kinetic Solubility (μMol): C (solubility ≥1.0 μMol and <50.0 μMol)
Caco-2 cells
  Efflux Ratio (Papp B>A/Papp A>B): B (efflux ratio >2 and ≤6)
Caco-2 cells; apical to basolateral
  Papp(A-B) (10 − 6, cm/sec): 1.8 10 − 6, cm/sec
